These are literature values, as cited in US20070026026A1 (priority 2005, published 2007).

The conditions of data set [1]: room temperature; cited from earlier work.
For data set [2] the following is noted: cited from earlier work.
For another data set, the target named is T1, AT1 receptor (Homo sapiens, UniProt P30556).
T1 sequence (P30556 1-359): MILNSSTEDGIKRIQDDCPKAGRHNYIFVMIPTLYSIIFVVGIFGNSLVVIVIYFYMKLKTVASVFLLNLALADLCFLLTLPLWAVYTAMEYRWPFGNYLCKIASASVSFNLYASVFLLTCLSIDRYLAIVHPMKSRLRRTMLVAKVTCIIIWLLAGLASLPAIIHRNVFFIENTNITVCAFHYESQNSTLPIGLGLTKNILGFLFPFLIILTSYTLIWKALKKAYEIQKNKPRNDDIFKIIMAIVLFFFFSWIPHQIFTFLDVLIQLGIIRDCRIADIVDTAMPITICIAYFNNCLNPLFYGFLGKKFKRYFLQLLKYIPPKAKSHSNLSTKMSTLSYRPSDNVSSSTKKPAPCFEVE
Conditions: cited from earlier work.

Another data set concerns the target cytochrome P450 3A4 (Homo sapiens, UniProt P08684). The conditions noted are these: in vitro studies; cited from earlier work.
The target in another data set is cytochrome P450 2C9 (Homo sapiens, UniProt P11712). Conditions: in vitro studies; cited from earlier work.
Chain of cytochrome P450 2C9 (P11712 whole entry): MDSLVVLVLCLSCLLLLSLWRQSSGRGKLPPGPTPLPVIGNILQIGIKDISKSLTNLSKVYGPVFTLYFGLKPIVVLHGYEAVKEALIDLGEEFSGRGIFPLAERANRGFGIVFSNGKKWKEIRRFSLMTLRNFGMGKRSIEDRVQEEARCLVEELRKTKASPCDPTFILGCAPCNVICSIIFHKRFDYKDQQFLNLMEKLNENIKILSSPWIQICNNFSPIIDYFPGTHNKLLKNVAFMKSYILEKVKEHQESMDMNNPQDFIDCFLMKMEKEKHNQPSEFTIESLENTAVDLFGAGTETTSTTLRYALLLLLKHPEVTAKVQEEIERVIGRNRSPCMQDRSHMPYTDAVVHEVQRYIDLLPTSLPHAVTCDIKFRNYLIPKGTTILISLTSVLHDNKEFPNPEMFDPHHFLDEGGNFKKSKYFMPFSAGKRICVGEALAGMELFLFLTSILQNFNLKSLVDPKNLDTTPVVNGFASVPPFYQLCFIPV

Chain of cytochrome P450 3A4 (P08684 whole entry): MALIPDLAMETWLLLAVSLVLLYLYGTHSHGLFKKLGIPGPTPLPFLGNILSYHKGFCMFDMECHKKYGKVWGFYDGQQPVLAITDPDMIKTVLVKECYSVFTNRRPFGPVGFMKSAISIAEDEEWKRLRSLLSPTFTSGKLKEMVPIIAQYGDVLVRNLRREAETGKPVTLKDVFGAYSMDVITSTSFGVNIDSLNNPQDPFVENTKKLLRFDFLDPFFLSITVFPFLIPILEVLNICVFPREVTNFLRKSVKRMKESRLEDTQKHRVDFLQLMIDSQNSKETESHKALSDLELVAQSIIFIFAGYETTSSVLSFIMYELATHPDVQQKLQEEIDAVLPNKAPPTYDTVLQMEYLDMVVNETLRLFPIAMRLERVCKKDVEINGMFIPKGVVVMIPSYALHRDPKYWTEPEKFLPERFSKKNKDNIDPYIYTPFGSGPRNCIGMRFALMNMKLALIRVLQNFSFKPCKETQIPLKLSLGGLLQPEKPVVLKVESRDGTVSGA

Regarding `CCCCc1nc(Cl)c(CO)n1Cc1ccc(-c2ccccc2-c2nnn[n-]2)cc1.[K+]` [Form I], in data set [1], the “thermodynamic stability of the polymorph” value is listed as “more thermodynamically stable polymorph”.
Consider `CCCCc1nc(Cl)c(CO)n1Cc1ccc(-c2ccccc2-c2nn[nH]n2)cc1` [losartan], for which the terminal half-life entry in data set [2] (in vivo) is “about 2 hours”. Moreover, in data set [2] (oral administration), the “maximum plasma concentrations of losartan and its active metabolite compared” value was “approximately equal”; the systemic bioavailability entry was “approximately 33%”; the “time to mean peak concentrations” value was 1 h. Besides, in data set [2] (oral losartan doses up to 200 mg), the “pharmacokinetics, dose dependence” value was “linear”. Further, in data set [2] (with a meal), the “effect of a meal on AUC (decrease)” value was “about 10%”, the “effect of a meal on Cmax” value is reported as “decreases” and the “effect of a meal on absorption” value is on record as “slows absorption”. Besides, the “partial agonist activity at the AT1 receptor” value on AT1 receptor was “do not exhibit any partial agonist activity”. For the same molecule, on cytochrome P450 3A4, the “involvement in the biotransformation of losartan to its metabolites” value is “involved”. The “involvement in the biotransformation of losartan to its metabolites” value on cytochrome P450 2C9 was “involved”.
